Experimental data taken from the kinase profiling compilation of Christmann-Franck et al. (2016).

What was measured:
Assay in all cases: KINOMEscan competition binding
[1] = target: MAP2K4 (human) (UniProt P45985)
[2] = target: MAP3K9 (human) (UniProt P80192)
[3] = target: CHUK (human) (UniProt O15111)
[4] = target: CLK2 (human) (UniProt P49760)
[5] = target: TEC (human) (UniProt P42680)
[6] = target: MAPK7 (human) (UniProt Q13164)
[7] = target: RPS6KA2 KD2 (human) (UniProt Q15349)
[8] = tested on: EGFR (human), P00533 [752-759 del]
[9] = target: FGFR3 (human) (UniProt P22607)
[10] = tested on: EGFR (human), P00533 [747-751 del / S ins]
[11] = target: MAPKAPK2 (human) (UniProt P49137)
MAPKAPK2 (human), sequence (P49137 whole entry, looked up): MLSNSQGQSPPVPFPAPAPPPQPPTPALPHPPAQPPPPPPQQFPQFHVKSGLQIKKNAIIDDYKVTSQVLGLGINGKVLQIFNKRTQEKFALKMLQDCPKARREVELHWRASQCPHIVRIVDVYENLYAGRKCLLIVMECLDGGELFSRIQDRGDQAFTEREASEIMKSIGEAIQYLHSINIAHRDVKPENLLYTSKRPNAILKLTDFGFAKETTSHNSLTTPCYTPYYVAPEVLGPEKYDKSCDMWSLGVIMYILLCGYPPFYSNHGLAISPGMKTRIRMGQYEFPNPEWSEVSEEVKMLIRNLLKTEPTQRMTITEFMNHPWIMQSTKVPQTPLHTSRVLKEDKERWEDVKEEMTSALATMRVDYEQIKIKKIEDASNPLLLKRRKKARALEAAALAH

[12] = target: NEK9 (human) (UniProt Q8TD19)
[13] = target: PIK3CB (human) (UniProt P42338)
[14] = target: NEK6 (human) (UniProt Q9HC98)
NEK6 (human), sequence (Q9HC98 whole entry, looked up): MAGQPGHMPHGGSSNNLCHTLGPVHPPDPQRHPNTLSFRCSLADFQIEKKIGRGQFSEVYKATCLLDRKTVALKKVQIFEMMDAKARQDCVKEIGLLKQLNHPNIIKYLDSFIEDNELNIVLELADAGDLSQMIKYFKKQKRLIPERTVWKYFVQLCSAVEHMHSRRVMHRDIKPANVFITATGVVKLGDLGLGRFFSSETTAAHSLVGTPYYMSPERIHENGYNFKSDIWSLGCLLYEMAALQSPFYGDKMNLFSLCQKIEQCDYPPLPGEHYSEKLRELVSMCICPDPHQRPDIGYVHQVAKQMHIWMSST

[15] = target: BTK (human) (UniProt Q06187)
[16] = target: STK32B (human) (UniProt Q9NY57)
[17] = target: HUNK (human) (UniProt P57058)
[18] = target: MAP3K5 (human) (UniProt Q99683)
[19] = target: INSR (human) (UniProt P06213)
[20] = target: CLK4 (human) (UniProt Q9HAZ1)
[21] = target: CDK2 (human) (UniProt P24941)
[22] = target: PIM3 (human) (UniProt Q86V86)
[23] = target: PRKAA2 (human) (UniProt P54646)
PRKAA2 (human), sequence (P54646 whole entry, looked up): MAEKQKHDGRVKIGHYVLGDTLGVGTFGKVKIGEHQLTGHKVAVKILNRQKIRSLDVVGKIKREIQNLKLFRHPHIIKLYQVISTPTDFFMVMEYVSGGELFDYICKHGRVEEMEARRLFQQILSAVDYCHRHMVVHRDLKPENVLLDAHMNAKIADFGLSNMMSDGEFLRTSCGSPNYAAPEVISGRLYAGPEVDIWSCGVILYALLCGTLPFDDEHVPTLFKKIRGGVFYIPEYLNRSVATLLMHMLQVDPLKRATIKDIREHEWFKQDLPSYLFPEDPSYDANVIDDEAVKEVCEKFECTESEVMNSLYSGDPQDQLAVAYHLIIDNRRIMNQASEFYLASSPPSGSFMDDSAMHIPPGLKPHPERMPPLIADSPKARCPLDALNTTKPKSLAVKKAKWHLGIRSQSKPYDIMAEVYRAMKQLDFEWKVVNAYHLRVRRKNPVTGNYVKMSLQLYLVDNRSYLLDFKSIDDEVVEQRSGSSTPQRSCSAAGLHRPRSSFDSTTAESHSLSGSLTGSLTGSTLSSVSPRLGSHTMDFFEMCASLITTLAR

[24] = target: MKNK2 (human) (UniProt Q9HBH9)
[25] = tested on: EGFR (human), P00533 [L858R]
[26] = target: DYRK1A (human) (UniProt Q13627)
[27] = target: STK16 (human) (UniProt O75716)
[28] = target: EPHA8 (human) (UniProt P29322)
[29] = target: MELK (human) (UniProt Q14680)
[30] = target: ALK (human) (UniProt Q9UM73)
[31] = tested on: RET (human), P07949 [M918T]
RET (human), P07949 [M918T], sequence (P07949 whole entry M918T, looked up): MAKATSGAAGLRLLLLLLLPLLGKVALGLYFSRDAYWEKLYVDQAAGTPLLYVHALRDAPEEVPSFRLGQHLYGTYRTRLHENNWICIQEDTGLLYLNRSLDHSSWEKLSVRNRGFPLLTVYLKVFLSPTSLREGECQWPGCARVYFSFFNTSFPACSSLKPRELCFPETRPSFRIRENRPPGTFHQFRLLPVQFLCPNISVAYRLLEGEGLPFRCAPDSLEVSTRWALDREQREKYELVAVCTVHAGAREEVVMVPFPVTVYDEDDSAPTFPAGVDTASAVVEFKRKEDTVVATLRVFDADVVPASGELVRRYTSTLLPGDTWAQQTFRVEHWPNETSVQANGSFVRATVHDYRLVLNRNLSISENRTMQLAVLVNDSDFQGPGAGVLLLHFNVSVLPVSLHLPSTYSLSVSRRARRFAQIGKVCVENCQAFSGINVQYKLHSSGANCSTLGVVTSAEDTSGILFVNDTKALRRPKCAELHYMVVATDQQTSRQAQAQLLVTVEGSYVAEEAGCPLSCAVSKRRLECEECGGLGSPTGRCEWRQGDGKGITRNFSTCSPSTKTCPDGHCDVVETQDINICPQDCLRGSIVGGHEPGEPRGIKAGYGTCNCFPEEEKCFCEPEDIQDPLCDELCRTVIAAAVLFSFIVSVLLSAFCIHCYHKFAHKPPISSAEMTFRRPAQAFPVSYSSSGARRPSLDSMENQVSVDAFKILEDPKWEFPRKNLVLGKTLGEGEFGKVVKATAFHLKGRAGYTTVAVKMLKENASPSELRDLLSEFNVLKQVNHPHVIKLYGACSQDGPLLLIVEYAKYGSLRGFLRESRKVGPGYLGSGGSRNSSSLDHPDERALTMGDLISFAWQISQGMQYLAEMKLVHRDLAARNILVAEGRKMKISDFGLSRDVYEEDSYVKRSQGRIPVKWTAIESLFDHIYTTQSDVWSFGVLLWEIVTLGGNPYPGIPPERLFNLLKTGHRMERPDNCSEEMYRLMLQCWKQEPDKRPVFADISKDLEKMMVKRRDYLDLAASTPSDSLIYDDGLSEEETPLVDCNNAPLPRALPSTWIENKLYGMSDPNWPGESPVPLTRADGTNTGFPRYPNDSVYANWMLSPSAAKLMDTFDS

[32] = target: MTOR (human) (UniProt P42345)
[33] = target: CDKL5 (human) (UniProt O76039)
[34] = tested on: RET (human), P07949 [V804M]
RET (human), P07949 [V804M], sequence (P07949 whole entry V804M, looked up): as the sequence (P07949 whole entry M918T, looked up) above, with V804M, T918M counted along it

[35] = target: PRKAA1 (human) (UniProt Q13131)
PRKAA1 (human), sequence (Q13131 whole entry, looked up): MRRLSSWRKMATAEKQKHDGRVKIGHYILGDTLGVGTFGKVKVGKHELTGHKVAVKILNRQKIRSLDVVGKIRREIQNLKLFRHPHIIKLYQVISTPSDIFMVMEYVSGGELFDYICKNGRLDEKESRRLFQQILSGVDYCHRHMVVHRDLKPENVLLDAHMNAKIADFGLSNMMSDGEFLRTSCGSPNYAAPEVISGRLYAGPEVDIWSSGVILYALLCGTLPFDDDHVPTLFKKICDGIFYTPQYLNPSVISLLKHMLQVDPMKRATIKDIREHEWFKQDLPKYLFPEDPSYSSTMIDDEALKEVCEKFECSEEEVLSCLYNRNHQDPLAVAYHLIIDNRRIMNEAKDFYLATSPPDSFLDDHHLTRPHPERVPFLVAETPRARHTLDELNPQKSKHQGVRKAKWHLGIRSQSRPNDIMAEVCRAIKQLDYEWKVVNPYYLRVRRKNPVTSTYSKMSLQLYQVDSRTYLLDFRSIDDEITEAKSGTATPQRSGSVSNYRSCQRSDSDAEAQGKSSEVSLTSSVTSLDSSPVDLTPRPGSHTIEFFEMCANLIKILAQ

[36] = target: IGF1R (human) (UniProt P08069)
IGF1R (human), sequence (P08069 whole entry, looked up): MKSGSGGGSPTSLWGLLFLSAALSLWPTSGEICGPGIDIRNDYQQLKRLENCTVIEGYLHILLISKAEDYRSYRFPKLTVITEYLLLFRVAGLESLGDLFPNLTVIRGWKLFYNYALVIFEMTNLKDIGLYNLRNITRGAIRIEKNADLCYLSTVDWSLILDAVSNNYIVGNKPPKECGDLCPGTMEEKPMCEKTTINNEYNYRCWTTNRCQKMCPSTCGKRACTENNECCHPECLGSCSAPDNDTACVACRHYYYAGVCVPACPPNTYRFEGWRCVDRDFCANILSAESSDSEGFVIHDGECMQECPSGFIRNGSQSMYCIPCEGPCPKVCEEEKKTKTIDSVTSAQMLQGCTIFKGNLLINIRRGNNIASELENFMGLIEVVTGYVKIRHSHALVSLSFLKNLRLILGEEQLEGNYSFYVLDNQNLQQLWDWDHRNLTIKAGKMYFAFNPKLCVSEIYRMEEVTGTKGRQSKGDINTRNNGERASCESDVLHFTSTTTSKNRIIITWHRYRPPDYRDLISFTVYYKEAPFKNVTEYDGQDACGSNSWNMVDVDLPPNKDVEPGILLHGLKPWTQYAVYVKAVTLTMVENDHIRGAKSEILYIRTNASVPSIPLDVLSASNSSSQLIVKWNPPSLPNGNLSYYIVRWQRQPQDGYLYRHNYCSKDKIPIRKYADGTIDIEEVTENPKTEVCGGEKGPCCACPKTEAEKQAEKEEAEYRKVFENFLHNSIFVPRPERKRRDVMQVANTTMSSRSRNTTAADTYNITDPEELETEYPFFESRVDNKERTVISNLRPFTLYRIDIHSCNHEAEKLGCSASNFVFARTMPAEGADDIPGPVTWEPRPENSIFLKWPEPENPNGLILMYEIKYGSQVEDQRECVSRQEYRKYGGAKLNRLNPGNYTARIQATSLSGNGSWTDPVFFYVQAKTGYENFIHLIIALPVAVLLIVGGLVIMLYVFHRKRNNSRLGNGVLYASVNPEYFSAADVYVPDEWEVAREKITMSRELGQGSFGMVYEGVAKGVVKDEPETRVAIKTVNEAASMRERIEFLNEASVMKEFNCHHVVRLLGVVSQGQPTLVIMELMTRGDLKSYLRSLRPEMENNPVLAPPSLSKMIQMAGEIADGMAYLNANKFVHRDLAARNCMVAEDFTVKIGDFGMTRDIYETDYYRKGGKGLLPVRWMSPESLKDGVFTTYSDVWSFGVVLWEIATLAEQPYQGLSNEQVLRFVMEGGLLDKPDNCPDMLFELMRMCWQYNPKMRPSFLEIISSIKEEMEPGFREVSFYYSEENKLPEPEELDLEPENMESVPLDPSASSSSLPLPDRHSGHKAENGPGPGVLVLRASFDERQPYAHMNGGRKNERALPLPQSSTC

[37] = tested on: MET (human), P08581 [M1250T]
[38] = target: PIK3CG (human) (UniProt P48736)
[39] = target: CDC42BPB (human) (UniProt Q9Y5S2)
[40] = target: MAP3K2 (human) (UniProt Q9Y2U5)
[41] = target: EPHA5 (human) (UniProt P54756)
[42] = target: PIM1 (human) (UniProt P11309)
[43] = target: EPHB6 (human) (UniProt O15197)

MAP2K4 (human), sequence (P45985 whole entry, looked up): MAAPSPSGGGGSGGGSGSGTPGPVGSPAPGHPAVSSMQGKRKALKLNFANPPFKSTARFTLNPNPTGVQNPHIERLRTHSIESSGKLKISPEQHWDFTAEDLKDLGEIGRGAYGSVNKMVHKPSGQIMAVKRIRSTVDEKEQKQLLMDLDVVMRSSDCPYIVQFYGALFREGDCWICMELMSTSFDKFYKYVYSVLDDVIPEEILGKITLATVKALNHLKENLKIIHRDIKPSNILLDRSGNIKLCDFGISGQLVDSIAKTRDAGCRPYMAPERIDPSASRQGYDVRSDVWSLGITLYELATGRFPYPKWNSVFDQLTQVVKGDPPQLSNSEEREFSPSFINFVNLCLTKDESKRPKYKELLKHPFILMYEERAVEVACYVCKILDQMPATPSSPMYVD

`CN(C)C/C=C/C(=O)Nc1cccc(C(=O)Nc2ccc(Nc3nccc(-c4c(-c5ccccc5)nn5ccccc45)n3)cc2)c1` was tested, and the kinase still bound, per cent of control ([1]; compound 1.0 µM) was 100%, the kinase still bound, per cent of control ([2]; compound 1.0 µM) was 59% and the kinase still bound, per cent of control ([3]; compound 1.0 µM) was 93%. For the same compound, the kinase still bound, per cent of control ([4]; compound 1.0 µM) was 90%, the kinase still bound, per cent of control ([5]; compound 1.0 µM) was 100% and the kinase still bound, per cent of control ([6]; compound 1.0 µM) was 100%. It also gave a kinase still bound, per cent of control ([7]; compound 1.0 µM) of 82%, a kinase still bound, per cent of control ([8]; compound 1.0 µM) of 7.8% and a kinase still bound, per cent of control ([9]; compound 1.0 µM) of 100%. For the same compound, the kinase still bound, per cent of control ([10]; compound 1.0 µM) was 3.4%, the kinase still bound, per cent of control ([11]; compound 1.0 µM) was 84% and the kinase still bound, per cent of control ([12]; compound 1.0 µM) was 100%. For the same compound, the kinase still bound, per cent of control ([13]; compound 1.0 µM) was 100%, the kinase still bound, per cent of control ([14]; compound 1.0 µM) was 100% and the kinase still bound, per cent of control ([15]; compound 1.0 µM) was 100%. For the same compound, the kinase still bound, per cent of control ([16]; compound 1.0 µM) was 30%, the kinase still bound, per cent of control ([17]; compound 1.0 µM) was 67% and the kinase still bound, per cent of control ([18]; compound 1.0 µM) was 100%. The kinase still bound, per cent of control ([19]; compound 1.0 µM) was 100%, the kinase still bound, per cent of control ([20]; compound 1.0 µM) was 100% and the kinase still bound, per cent of control ([21]; compound 1.0 µM) was 100%. It also gave a kinase still bound, per cent of control ([22]; compound 1.0 µM) of 94%, a kinase still bound, per cent of control ([23]; compound 1.0 µM) of 90% and a kinase still bound, per cent of control ([24]; compound 1.0 µM) of 100%. The kinase still bound, per cent of control ([25]; compound 1.0 µM) was 0.8%, the kinase still bound, per cent of control ([26]; compound 1.0 µM) was 90% and the kinase still bound, per cent of control ([27]; compound 1.0 µM) was 37%. For the same compound, the kinase still bound, per cent of control ([28]; compound 1.0 µM) was 39%, the kinase still bound, per cent of control ([29]; compound 1.0 µM) was 100% and the kinase still bound, per cent of control ([30]; compound 1.0 µM) was 100%. For the same compound, the kinase still bound, per cent of control ([31]; compound 1.0 µM) was 10%, the kinase still bound, per cent of control ([32]; compound 1.0 µM) was 100% and the kinase still bound, per cent of control ([33]; compound 1.0 µM) was 100%. It also gave a kinase still bound, per cent of control ([34]; compound 1.0 µM) of 100%, a kinase still bound, per cent of control ([35]; compound 1.0 µM) of 100% and a kinase still bound, per cent of control ([36]; compound 1.0 µM) of 100%. It also gave a kinase still bound, per cent of control ([37]; compound 1.0 µM) of 70%, a kinase still bound, per cent of control ([38]; compound 1.0 µM) of 84% and a kinase still bound, per cent of control ([39]; compound 1.0 µM) of 16%. It also gave a kinase still bound, per cent of control ([40]; compound 1.0 µM) of 52%, a kinase still bound, per cent of control ([41]; compound 1.0 µM) of 98% and a kinase still bound, per cent of control ([42]; compound 1.0 µM) of 84%. For the same compound, the kinase still bound, per cent of control ([43]; compound 1.0 µM) was 9.4%.
Work on `Cc1ccc(NC(=O)c2ccc(NC(=O)/C=C/CN(C)C)cc2)cc1Nc1nccc(-c2cccnc2)n1` yielded a kinase still bound, per cent of control ([1]; compound 10.0 µM) of 15%, a kinase still bound, per cent of control ([2]; compound 10.0 µM) of 100% and a kinase still bound, per cent of control ([3]; compound 10.0 µM) of 70%. It also gave a kinase still bound, per cent of control ([4]; compound 10.0 µM) of 100%, a kinase still bound, per cent of control ([5]; compound 10.0 µM) of 100% and a kinase still bound, per cent of control ([6]; compound 10.0 µM) of 100%. For the same compound, the kinase still bound, per cent of control ([7]; compound 10.0 µM) was 86%, the kinase still bound, per cent of control ([8]; compound 10.0 µM) was 54% and the kinase still bound, per cent of control ([9]; compound 10.0 µM) was 100%. The kinase still bound, per cent of control ([10]; compound 10.0 µM) was 50%, the kinase still bound, per cent of control ([11]; compound 10.0 µM) was 100% and the kinase still bound, per cent of control ([12]; compound 10.0 µM) was 100%. The kinase still bound, per cent of control ([13]; compound 10.0 µM) was 100%, the kinase still bound, per cent of control ([14]; compound 10.0 µM) was 44% and the kinase still bound, per cent of control ([15]; compound 10.0 µM) was 76%. It also gave a kinase still bound, per cent of control ([16]; compound 10.0 µM) of 100%, a kinase still bound, per cent of control ([17]; compound 10.0 µM) of 25% and a kinase still bound, per cent of control ([18]; compound 10.0 µM) of 100%. The kinase still bound, per cent of control ([19]; compound 10.0 µM) was 93%, the kinase still bound, per cent of control ([20]; compound 10.0 µM) was 6.2% and the kinase still bound, per cent of control ([21]; compound 10.0 µM) was 95%. For the same compound, the kinase still bound, per cent of control ([22]; compound 10.0 µM) was 66%, the kinase still bound, per cent of control ([23]; compound 10.0 µM) was 56% and the kinase still bound, per cent of control ([24]; compound 10.0 µM) was 4.2%. The kinase still bound, per cent of control ([25]; compound 10.0 µM) was 57%, the kinase still bound, per cent of control ([26]; compound 10.0 µM) was 98% and the kinase still bound, per cent of control ([27]; compound 10.0 µM) was 34%. The kinase still bound, per cent of control ([28]; compound 10.0 µM) was 81%, the kinase still bound, per cent of control ([29]; compound 10.0 µM) was 12% and the kinase still bound, per cent of control ([30]; compound 10.0 µM) was 100%. For the same compound, the kinase still bound, per cent of control ([31]; compound 10.0 µM) was 81%, the kinase still bound, per cent of control ([32]; compound 10.0 µM) was 100% and the kinase still bound, per cent of control ([33]; compound 10.0 µM) was 100%. For the same compound, the kinase still bound, per cent of control ([34]; compound 10.0 µM) was 100%, the kinase still bound, per cent of control ([35]; compound 10.0 µM) was 73% and the kinase still bound, per cent of control ([36]; compound 10.0 µM) was 100%. For the same compound, the kinase still bound, per cent of control ([37]; compound 10.0 µM) was 100%, the kinase still bound, per cent of control ([38]; compound 10.0 µM) was 68% and the kinase still bound, per cent of control ([39]; compound 10.0 µM) was 78%. The kinase still bound, per cent of control ([40]; compound 10.0 µM) was 84%, the kinase still bound, per cent of control ([41]; compound 10.0 µM) was 97% and the kinase still bound, per cent of control ([42]; compound 10.0 µM) was 69%. It also gave a kinase still bound, per cent of control ([43]; compound 10.0 µM) of 26%.
